{"source": "paper PMC4004761", "about": "(Journal of medicinal chemistry, 2013)", "key": {"[1]": {"test_system": "kindled seizures (seizure score, after-discharge duration)", "conditions": "for Effect in rat kindling model: Figure 1"}, "[2]": {"test_system": "maximal electroshock seizure (hind-limb tonic extension)", "conditions": "mouse"}, "[3]": {"test_system": "chemically-induced forelimb clonic seizures", "conditions": "mouse, cited from earlier work"}, "[4]": {"test_system": "kindled seizures (seizure score, after-discharge duration)", "conditions": "cited from earlier work"}, "[5]": {"test_system": "maximal electroshock seizure (hind-limb tonic extension)", "conditions": "at 2 h (time of peak effect); cited from earlier work"}, "[6]": {"test_system": "maximal electroshock seizure (hind-limb tonic extension)", "conditions": "in vivo, cited from earlier work"}, "sound-induced seizures": {"test_system": "sound-induced seizures", "test": "animal or person", "conditions": "Mus musculus, ip, read-out: Audiogenic seizure ED50"}, "kappa-opioid receptor": {"target": "kappa-opioid receptor (Homo sapiens, UniProt P41145)", "sequence (P41145 whole entry)": "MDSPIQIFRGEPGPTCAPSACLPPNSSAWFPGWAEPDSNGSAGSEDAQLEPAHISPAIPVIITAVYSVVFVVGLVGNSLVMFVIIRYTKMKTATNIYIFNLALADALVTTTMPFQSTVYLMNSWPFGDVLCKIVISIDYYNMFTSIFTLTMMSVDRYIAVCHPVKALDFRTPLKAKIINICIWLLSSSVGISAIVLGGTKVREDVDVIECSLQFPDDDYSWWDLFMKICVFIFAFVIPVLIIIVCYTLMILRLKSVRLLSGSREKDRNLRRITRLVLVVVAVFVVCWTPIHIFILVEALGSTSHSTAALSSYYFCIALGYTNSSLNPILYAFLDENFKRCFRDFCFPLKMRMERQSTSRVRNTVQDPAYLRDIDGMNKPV", "test": "Cerep receptor-binding panel: kappa opioid", "conditions": "read-out: Inhibition, kappa-opioid receptor"}, "rat Nav1.2": {"target": "rat Nav1.2 (Rattus norvegicus, UniProt P04775)", "sequence (P04775 whole entry)": "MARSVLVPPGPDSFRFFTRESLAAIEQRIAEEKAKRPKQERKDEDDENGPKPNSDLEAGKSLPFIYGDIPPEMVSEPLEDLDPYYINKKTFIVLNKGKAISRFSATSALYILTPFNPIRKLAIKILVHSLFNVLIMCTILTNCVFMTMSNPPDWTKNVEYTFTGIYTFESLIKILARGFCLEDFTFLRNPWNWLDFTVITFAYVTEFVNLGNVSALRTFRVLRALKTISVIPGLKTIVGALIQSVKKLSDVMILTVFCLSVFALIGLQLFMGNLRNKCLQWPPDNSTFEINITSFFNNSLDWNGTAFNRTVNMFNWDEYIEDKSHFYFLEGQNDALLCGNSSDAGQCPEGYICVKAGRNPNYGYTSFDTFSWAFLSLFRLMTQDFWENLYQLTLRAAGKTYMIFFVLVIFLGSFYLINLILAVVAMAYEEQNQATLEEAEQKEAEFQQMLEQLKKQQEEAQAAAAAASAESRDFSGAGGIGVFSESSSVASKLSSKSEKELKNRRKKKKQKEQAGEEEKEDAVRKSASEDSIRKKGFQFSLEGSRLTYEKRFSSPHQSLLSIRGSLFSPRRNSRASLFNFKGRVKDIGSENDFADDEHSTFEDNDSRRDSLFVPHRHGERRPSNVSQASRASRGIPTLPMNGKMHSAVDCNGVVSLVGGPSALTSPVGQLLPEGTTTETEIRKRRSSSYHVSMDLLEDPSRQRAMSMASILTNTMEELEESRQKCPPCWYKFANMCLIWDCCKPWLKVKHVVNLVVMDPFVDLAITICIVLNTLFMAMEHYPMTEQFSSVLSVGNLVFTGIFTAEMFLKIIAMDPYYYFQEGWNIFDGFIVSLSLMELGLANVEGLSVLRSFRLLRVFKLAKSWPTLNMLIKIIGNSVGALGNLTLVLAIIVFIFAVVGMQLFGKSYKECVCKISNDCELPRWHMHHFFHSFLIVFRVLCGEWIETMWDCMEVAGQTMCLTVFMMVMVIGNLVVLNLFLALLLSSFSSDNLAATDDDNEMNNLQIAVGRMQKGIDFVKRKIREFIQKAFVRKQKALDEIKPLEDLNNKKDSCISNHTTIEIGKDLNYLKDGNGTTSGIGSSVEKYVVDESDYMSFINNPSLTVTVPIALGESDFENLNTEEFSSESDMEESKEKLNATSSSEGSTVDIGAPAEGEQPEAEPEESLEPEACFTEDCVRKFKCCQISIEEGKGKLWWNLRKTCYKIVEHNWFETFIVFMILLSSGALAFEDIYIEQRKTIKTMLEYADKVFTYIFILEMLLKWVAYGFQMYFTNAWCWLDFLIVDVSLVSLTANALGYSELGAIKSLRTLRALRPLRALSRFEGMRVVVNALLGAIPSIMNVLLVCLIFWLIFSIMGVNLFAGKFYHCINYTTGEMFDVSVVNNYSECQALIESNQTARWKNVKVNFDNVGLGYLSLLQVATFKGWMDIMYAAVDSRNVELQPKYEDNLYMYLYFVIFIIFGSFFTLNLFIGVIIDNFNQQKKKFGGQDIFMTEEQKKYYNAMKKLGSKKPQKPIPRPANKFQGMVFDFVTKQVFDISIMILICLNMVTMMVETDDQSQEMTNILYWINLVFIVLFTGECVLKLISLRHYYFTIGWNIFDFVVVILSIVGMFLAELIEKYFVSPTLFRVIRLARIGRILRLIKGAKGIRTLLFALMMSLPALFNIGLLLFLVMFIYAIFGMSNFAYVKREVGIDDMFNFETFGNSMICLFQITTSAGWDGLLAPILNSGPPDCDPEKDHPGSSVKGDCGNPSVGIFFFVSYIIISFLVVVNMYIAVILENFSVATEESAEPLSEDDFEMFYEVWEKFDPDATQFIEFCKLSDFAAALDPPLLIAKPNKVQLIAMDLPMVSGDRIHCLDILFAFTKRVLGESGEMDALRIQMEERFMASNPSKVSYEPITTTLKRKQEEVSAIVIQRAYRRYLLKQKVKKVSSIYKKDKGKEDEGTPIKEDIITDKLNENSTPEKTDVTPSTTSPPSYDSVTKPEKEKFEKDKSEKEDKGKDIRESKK", "test": "Voltage-gated Na+ channel whole-cell patch-clamp in CHL1610 cells", "format": "cell-based"}, "rat KCNQ2": {"target": "rat KCNQ2 (Rattus norvegicus, UniProt O88943)", "sequence (O88943 whole entry)": "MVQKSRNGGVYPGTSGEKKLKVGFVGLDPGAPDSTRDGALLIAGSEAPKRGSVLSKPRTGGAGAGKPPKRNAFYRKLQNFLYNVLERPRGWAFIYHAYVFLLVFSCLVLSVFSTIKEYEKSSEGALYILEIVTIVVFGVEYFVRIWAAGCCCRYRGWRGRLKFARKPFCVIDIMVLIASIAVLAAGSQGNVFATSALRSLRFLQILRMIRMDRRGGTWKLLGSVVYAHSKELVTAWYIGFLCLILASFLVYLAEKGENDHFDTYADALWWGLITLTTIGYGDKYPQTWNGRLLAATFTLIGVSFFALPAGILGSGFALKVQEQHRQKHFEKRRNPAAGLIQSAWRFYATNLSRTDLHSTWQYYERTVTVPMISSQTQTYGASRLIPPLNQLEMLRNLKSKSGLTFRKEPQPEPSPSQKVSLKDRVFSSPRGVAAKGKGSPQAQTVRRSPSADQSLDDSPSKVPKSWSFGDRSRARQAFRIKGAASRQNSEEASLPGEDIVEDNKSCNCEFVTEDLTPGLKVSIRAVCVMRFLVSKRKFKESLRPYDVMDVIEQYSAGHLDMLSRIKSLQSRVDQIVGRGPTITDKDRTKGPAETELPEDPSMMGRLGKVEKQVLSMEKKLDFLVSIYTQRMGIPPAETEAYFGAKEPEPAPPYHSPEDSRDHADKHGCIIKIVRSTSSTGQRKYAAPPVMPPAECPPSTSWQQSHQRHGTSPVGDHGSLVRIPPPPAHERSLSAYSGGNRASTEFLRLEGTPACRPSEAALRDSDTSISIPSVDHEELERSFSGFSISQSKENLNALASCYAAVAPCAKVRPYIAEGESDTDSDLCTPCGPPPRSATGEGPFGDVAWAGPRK", "test": "KCNQ2 whole-cell patch-clamp, M-current protocol", "format": "cell-based"}}, "note": "Read-outs that look alike come from different tables or passages of the source. Marks after values point to notes of the source that are not given here."}
{"smiles": "NC(=O)N1c2ccccc2C=Cc2ccccc21", "note": "[carbamazepine]", "values": [{"measurement": "Effect in rat kindling model", "setting": "[1]; maximally effective dose", "value": "significantly suppressed seizure activity"}, {"measurement": "Doses giving protection similar to 4 (range of neurotoxic effects)", "setting": "[1]; rat kindling", "value": "> 26", "unit": "mg/kg"}]}
{"smiles": "CCC1(C)CC(=O)NC1=O", "note": "(centres unmarked) [ethosuximide]", "values": [{"measurement": "Effect in rat kindling model", "setting": "[1]; maximally effective dose", "value": "not effective"}]}
{"smiles": "CN(C)S(=O)(=O)NCC1COc2ccccc2O1", "note": "(centres unmarked) [compound 7, N-((2,3-Dihydrobenzo[1,4]dioxin-2-yl)methyl)-N’,N’-dimethylsulfamide]", "values": [{"measurement": "MES, po, effect (animals responding / animals tested)", "setting": "[2]; 300 mg/kg po, 0.5 h", "value": "4/5"}, {"measurement": "MES, po, effect (animals responding / animals tested)", "setting": "[2]; 300 mg/kg po, 2 h", "value": "0/5"}]}
{"smiles": "CC[C@@H](C(N)=O)N1CCCC1=O", "note": "[levetiracetam]", "values": [{"measurement": "ED50 in chemically-induced seizures (comparators)", "setting": "[3]", "value": "> 540", "unit": "mg/kg"}]}
{"smiles": "O=C1NC(=O)C(c2ccccc2)(c2ccccc2)N1", "note": "[phenytoin]", "values": [{"measurement": "Effect in rat kindling model", "setting": "[1]; maximally effective dose", "value": "significantly suppressed seizure activity"}]}
{"smiles": "NS(=O)(=O)NCC1Oc2ccc(Cl)cc2O1", "note": "(centres unmarked) [11b]", "values": [{"measurement": "MES, po, effect (animals responding / animals tested)", "setting": "[2]; 100 mg/kg po, 0.5 h", "value": "0.5, 0/5; 2, 0/5"}, {"measurement": "MES, po, effect (animals responding / animals tested)", "setting": "[2]; 100 mg/kg po, 2 h", "value": "0.5, 0/5; 2, 0/5"}]}
{"smiles": "NS(=O)(=O)NC[C@H]1COc2c(Cl)cccc2O1", "note": "[10a]", "values": [{"measurement": "MES, po, effect (animals responding / animals tested)", "setting": "[2]; 100 mg/kg po, 0.5 h", "value": "0/5"}, {"measurement": "MES, po, effect (animals responding / animals tested)", "setting": "[2]; 100 mg/kg po, 2 h", "value": "1/5"}]}
{"smiles": "NS(=O)(=O)NCc1csc2ccccc12", "note": "[compound 3, N-((benzo[b]thien-3-yl)methyl)sulfamide]", "values": [{"measurement": "Rats with complete absence of seizure activity", "setting": "[4]; maximally effective dose, time of peak effect", "value": "six out of eight"}, {"measurement": "Reduction of after-discharge duration", "setting": "[4]; rat, i.p., p < 0.01", "value": 64, "unit": "%"}, {"measurement": "Rats with seizure score reduced from 5 to 0", "setting": "[4]; rat, i.p., p = 0.0001", "value": "six out of eight"}, {"measurement": "Time of peak activity", "setting": "[4]; rat, i.p., sustained at 1 h", "value": 15, "unit": "min"}, {"measurement": "ED50 vs s.c. Bic-induced forelimb clonic seizures", "setting": "[3]; ip, […]", "value": 156, "unit": "mg/kg"}, {"measurement": "ED50 vs s.c. PTZ-induced forelimb clonic seizures", "setting": "[3]; ip, […]", "value": 161, "unit": "mg/kg"}, {"measurement": "ED50 vs s.c. Pic-induced forelimb clonic seizures", "setting": "[3]; ip, […]", "value": 106, "unit": "mg/kg"}, {"measurement": "Rat MES oral ED50", "setting": "[5]", "value": 34, "unit": "mg/kg"}, {"measurement": "Oral mouse MES ED50", "setting": "[6]", "value": "119 ^c mg/kg"}, {"measurement": "MES, po, effect (animals responding / animals tested)", "setting": "[6]; mouse, 100 mg/kg", "value": "0.5, 1/5; 2, 3/5"}]}
{"smiles": "CC1(C)O[C@@H]2[C@@H](CO[C@@]3(COS(N)(=O)=O)OC(C)(C)O[C@@H]23)O1", "note": "[compound 1, topiramate]", "values": [{"measurement": "ED50", "setting": "sound-induced seizures", "value": 4.2, "unit": "mg/kg"}, {"measurement": "Rats with complete protection", "setting": "[1]; maximally effective dose", "value": "one out of eight"}, {"measurement": "Effect in rat kindling model", "setting": "[1]; maximally effective dose", "value": "not effective"}, {"measurement": "Oral mouse MES ED50", "setting": "[6]", "value": "43.8 ^f mg/kg"}, {"measurement": "MES, po, effect (animals responding / animals tested)", "setting": "[6]; mouse", "value": "0.5, 2/5; 2, 4/5 ^l"}]}
{"smiles": "COc1cccc2c1O[C@@H](CNS(N)(=O)=O)CO2", "note": "[10g]", "values": [{"measurement": "MES, po, effect (animals responding / animals tested)", "setting": "[2]; 100 mg/kg po, 0.5 h", "value": "0.5, 0/5; 2, 0/5 ^j"}, {"measurement": "MES, po, effect (animals responding / animals tested)", "setting": "[2]; 100 mg/kg po, 2 h", "value": "0.5, 0/5; 2, 0/5 ^j"}]}
{"smiles": "CCCCNS(N)(=O)=O", "note": "[BuNHSO2NH2]", "values": [{"measurement": "Activity in the MES test", "setting": "[6]; mouse", "value": "not active"}]}
{"smiles": "NS(=O)(=O)NC[C@H]1COc2cc(Cl)ccc2O1", "note": "[compound 4, (2S)-(–)-N-((6-Chloro-2,3-dihydrobenzo[1,4]dioxin-2-yl)methyl)sulfamide]", "values": [{"measurement": "inhibition at 10 µM", "setting": "kappa-opioid receptor", "value": 45, "unit": "%"}, {"measurement": "Nav1.2 inhibition at −107 mV", "setting": "rat Nav1.2; at −107 mV", "value": "virtually no inhibition"}, {"measurement": "Increase in KCNQ2 current", "setting": "rat KCNQ2; 300 μM, −50 mV, N = 5 cells", "value": 2.4, "unit": "fold"}, {"measurement": "Increase in decay kinetics", "setting": "rat KCNQ2; 300 μM, −50 mV, N = 5 cells", "value": 2, "unit": "fold"}, {"measurement": "Increase in KCNQ2 current", "setting": "rat KCNQ2; 750 μM", "value": 4, "unit": "fold"}, {"measurement": "Effect on after-discharge duration", "setting": "[1]; rat, i.p., p = 0.07", "value": "no statistically significant effect"}]}
{"smiles": "NCC1(CC(=O)O)CCCCC1", "note": "[gabapentin]", "values": [{"measurement": "Effect on Na+ channel activity", "setting": "rat Nav1.2; up to 300 μM", "value": "no effect"}]}
{"smiles": "CCCC(CCC)C(=O)O", "note": "[valproic acid]", "values": [{"measurement": "ED50 in chemically-induced seizures (comparators)", "setting": "[3]", "value": "> 200", "unit": "mg/kg"}, {"measurement": "Effect in rat kindling model", "setting": "[1]; maximally effective dose", "value": "significantly suppressed seizure activity"}, {"measurement": "Doses giving protection similar to 3 (range of neurotoxic effects)", "setting": "[1]; rat kindling", "value": "> 300", "unit": "mg/kg"}]}
{"smiles": "NS(=O)(=O)NCc1ccccc1", "note": "[PhCH2NHSO2NH2]", "values": [{"measurement": "Mouse MES effect (animals protected / tested)", "setting": "[6]; 100 mg/kg", "value": "3/3"}, {"measurement": "Mouse MES effect (animals protected / tested)", "setting": "[6]; 300 mg/kg", "value": "3/3"}]}
